Data reported in publication PMC6501426 (Clinical Epigenetics, 2019).

Columns and labels:
[1] = target: T1, human DNMT1 (Homo sapiens, UniProt P26358); assay: DNMT1 assay (radiolabeled SAM, Flashplate); assay type: biochemical
T1 construct: His; made in house
Procedure: His-DNMT1 (182 kDa, human) was cloned, expressed, and purified as described by Lee et al.. The DNMT1 assay was performed according to Gros et al.. Briefly, the DNMT1 enzymatic assay is based on the use of radiolabeled SAM, and the methylation occurs in homogeneous phase in 384-well microplates. The reaction is performed with DNMT1 at the final concentration of 90 nM in a total volume of 10 μL including also the chemical compound to be tested at the desired concentration, 1.25 μM of SAM//[methyl-^3H] SAM (3TBq/mmol) mix in a ratio of 3:1 and 0.3 μM of biotinylated DNA duplex. DNMT1, as “maintenance” methyltransferase, requires hemimethylated DNA for the reaction. After 2 h incubation at 37 °C, 8 μL of the reaction’s solution is transferred into a streptavidin 96-well scintillant coated Flashplate^TM containing 190 μL of […] in 50 mM Tris-HCl (pH 7.4). The Flashplate^TM is then agitated at room temperature for 1 h and washed. The plate is read with TopCount (PerkinElmer, Villebon-sur-Yvette, France). The greater the DNMT1 inhibition, the lower will be the scintillation signal correlated to the incorporation of the tritiated methyl groups. In this assay, the negative and positive controls were defined as wells without enzyme and wells without any compound but just DMSO, respectively.

[2] = target: T2, Abl kinase (h) (Homo sapiens, UniProt P00519); assay: Kinase panel (ExpresS Diversity Kinase Profile, Cerep); assay type: biochemical; settings: read-out: % inhibition at 10 µM by MC3353, Abl kinase (h), ATP 10 μM
T2 construct: purchased Eurofins Cerep
T2 sequence (P00519 whole entry): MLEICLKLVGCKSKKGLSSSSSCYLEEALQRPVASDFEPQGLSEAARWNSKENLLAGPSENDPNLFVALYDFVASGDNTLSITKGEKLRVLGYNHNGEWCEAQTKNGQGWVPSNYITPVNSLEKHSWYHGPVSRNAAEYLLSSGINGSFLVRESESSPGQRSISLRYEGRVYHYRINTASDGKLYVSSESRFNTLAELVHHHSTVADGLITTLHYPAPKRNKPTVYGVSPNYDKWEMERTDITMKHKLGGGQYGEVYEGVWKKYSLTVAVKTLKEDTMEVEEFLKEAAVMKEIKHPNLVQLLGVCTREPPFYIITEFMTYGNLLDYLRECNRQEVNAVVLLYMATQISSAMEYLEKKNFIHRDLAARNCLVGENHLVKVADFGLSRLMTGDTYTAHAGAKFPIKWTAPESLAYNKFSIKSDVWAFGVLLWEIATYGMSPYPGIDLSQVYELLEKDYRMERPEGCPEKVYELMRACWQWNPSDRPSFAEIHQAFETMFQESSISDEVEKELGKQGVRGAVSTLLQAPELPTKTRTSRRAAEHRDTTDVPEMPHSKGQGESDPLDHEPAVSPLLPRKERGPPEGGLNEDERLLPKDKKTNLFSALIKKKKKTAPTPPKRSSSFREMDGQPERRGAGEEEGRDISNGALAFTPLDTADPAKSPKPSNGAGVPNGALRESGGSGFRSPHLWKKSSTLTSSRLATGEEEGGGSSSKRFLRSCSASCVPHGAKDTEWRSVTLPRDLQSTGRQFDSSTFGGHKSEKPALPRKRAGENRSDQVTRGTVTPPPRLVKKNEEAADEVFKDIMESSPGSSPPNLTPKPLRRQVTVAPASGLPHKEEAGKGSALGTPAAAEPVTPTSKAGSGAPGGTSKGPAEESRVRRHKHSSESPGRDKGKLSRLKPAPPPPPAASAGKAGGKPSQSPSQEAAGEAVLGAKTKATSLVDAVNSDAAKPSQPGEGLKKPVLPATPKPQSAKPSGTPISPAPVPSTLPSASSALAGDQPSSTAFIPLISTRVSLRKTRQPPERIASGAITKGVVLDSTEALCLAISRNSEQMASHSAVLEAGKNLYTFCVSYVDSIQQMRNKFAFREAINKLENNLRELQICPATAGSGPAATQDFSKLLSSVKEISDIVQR
Procedure: The test compound, reference compound or water (control) were mixed with the enzyme (for the exact amount see table below) in the appropriate buffer. Thereafter, the reaction was initiated by adding the required amount of the appropriate substrate and of ATP, and the mixture is incubated at room temperature (variable reaction time, see table below). For control basal measurements, the enzyme was omitted from the reaction mixture. Following incubation, the reaction was stopped by adding 13 mM EDTA. After 5 min, the proper antibody labelled with europium chelate was added. After 60 more min, the fluorescence transfer was measured at λex=337 nm, λem=620 nm and λem=665 nm using a microplate reader (Envision, Perkin Elmer). The enzyme activity was determined by dividing the signal measured at 665 nm by that measured at 620 nm (ratio). The results are expressed as a percent inhibition of the control enzyme activity.

[3] = system: primary osteosarcoma cell lines; assay: Growth inhibition in panel of primary osteosarcoma cell lines; assay type: cell-based; settings: Homo sapiens; range over the osteosarcoma panel
Procedure: To perform osteosarcoma cell growth inhibition experiments, 2 × 10^5 cells/well were plated, and MC3353 (0.1–30 μM) or DAC (0.5 μM) was added after 24 h. Cells were exposed for up to 96 h before being counted by Trypan blue vital cell count (Sigma-Aldrich, Milan, Italy). In parallel, the cells were treated with DMSO-containing medium as a control. The highest final concentration of DMSO in the medium was < 0.005%, and DMSO had no effect on cell growth.
(§1) IC50 values of compounds against cellular viability were determined by using nonlinear regression fitting curves with GraphPad Prism 8 or CalcuSyn software The t test used for statistical analyses was performed with GraphPad Prism 8. All the tests were one-tailed, and a p value < 0.05 was considered statistically significant.

[4] = system: RAJI; assay: Cell viability, trypan blue exclusion; assay type: cell-based, human
Procedure: (§2) U-937 (acute myeloid leukemia), RAJI (Burkitt’s lymphoma), PC-3 (prostate cancer), and MDA-MB-231 (breast cancer) cell lines were obtained from the Deutsche Sammlung für Mikroorganismen and Zellkulturen (DSZM, Braunschweig, Germany) and were cultured in RPMI 1640 (Lonza, Verviers, Belgium) complemented with 10% FBS (Lonza, Verviers, Belgium) and 1% antibiotic-antimycotic (Lonza). RPMI1788 (normal B lymphocytes) and KG-1 (acute myeloid leukemia) cell lines were obtained from the American Type Culture Collection (ATCC) and were maintained in RPMI 1640 complemented with 20% FBS and IMDM complemented with 10% FBS, respectively. Cell lines were treated with compounds at the indicated concentrations in the exponential growth phase.
(§3) Proliferation and viability of U-937, KG-1, RAJI, PC-3, MDA-MB-231, RPMI1788, PBMCs, and PHA_PBMCs were assessed by trypan blue exclusion assays at the indicated time points. Nuclear morphology changes associated with apoptosis and necrosis were evaluated by fluorescence microscopy after Hoechst and propidium iodide (PI) staining as previously described.
as §1

[5] = system: KG-1; assay: Cell viability, trypan blue exclusion; assay type: cell-based, human
Procedure: as §2, §3, §1

[6] = system: MDA-MB-231; assay: Cell viability, trypan blue exclusion; assay type: cell-based, human
Procedure: as §2, §3, §1

[7] = system: PC-3; assay: Cell viability, trypan blue exclusion; assay type: cell-based, human
Procedure: as §2, §3, §1

[8] = system: U-937; assay: Cell viability, trypan blue exclusion; assay type: cell-based, human
Procedure: as §2, §3, §1

[9] = system: DNMT3A protein level in HCT116 cells; assay: Western blot of DNMT3A protein in HCT116; assay type: cell-based, human; settings: 24 h; MC3353 effect detectable at 0.1 μM
Excerpt: Cells were lysed in Laemmli buffer; subsequently, the proteins were resolved by sodium dodecyl sulfate-polyacrylamide gel electrophoresis and transferred to a 0.45-μm nitrocellulose membrane (Bio-Rad Laboratories, Hercules, CA). The following primary antibodies were used for immunoblotting: α-E-cadherin (BD Transduction Laboratories, Franklin Lakes, NJ), α-MMP2 (Abcam), α-DNMT3a (Santa Cruz Biotechnologies, Dallas, TX), and α-GAPDH (Millipore Corp., Bedford, MA), used as a loading control. The immune complexes were detected with horseradish peroxidase-conjugated species-specific secondary antiserum (Bio-Rad Laboratories, Milan, Italy) then by enhanced chemiluminescence reaction (Bio-Rad Laboratories, Milan, Italy). Densitometric analysis of protein expression was performed by using the Fiji ImageJ image processing package.
GAPDH was used as a loading control. Blots are representative of two independent experiments

T1 sequence (P26358 whole entry): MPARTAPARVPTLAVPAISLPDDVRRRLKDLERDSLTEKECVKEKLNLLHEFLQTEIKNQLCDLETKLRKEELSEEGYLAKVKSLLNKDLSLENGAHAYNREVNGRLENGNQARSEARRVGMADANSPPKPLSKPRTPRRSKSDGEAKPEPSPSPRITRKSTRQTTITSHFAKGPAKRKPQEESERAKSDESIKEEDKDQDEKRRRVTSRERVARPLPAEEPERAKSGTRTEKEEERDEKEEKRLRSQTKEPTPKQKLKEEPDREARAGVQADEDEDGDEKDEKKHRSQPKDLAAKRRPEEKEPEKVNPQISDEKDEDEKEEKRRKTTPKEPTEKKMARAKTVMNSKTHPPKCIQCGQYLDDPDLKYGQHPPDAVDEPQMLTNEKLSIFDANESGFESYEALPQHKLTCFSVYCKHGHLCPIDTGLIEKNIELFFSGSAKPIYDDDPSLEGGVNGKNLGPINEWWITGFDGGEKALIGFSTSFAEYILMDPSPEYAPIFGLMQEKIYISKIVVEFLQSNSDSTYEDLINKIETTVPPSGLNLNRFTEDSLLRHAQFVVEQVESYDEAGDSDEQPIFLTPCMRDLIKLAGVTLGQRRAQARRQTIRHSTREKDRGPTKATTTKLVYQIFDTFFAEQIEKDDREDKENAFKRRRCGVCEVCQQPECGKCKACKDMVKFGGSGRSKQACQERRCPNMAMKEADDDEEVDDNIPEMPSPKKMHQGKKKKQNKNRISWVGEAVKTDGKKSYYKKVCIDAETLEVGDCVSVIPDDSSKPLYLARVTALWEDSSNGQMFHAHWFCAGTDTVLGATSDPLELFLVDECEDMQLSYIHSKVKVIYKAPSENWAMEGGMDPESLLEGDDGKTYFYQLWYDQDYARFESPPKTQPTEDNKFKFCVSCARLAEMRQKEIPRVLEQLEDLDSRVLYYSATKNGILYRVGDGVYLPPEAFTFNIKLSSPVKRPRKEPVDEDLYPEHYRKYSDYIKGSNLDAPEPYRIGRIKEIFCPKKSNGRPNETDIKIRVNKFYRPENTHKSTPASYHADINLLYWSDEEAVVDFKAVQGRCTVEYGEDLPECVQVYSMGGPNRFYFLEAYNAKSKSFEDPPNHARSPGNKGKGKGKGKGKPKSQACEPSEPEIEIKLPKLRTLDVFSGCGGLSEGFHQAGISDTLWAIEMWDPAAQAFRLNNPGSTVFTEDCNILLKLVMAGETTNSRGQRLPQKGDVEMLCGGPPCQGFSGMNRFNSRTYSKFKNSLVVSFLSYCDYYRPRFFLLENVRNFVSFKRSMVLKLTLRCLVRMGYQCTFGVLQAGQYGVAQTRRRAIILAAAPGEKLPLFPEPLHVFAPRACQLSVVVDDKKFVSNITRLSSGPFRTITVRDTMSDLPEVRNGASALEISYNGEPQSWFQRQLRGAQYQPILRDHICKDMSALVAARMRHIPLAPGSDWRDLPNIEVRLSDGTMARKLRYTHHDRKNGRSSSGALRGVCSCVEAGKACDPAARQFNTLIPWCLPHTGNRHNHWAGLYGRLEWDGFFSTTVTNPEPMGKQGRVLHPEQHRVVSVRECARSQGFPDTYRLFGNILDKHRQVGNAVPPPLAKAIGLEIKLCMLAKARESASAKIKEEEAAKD

O=C(Nc1ccc(NC(=O)c2ccc(Nc3ccnc4ccccc34)cc2)cc1)OCc1ccccc1 [MC3353, Benzyl (4-(4-(quinolin-4-ylamino)benzamido)phenyl)carbamate]
EC50 ([1]; radioactivity assay, at least two independent experiments, read-out: EC50 ± SD, hDNMT1): 67 ± 4 µM
fold less effective than SGI-1027 against hDNMT1 ([1]; ratio of EC50 values): 5.6 fold
fold more potent than RG-108 against hDNMT1 ([1]; ratio of EC50 values): 6 fold
inhibition at 10 µM [2]: 0%
IC50 [3]: 1.1 to 2.4 µM
Selectivity index (IC50 PBMCs/IC50 cell line), RAJI ([4]; 48 h): (23.1)
Selectivity index (IC50 PHA_PBMCs/IC50 cell line), RAJI ([4]; 48 h): (11.9)
Selectivity index (IC50 RPMI1788/IC50 cell line), RAJI ([4]; 48 h): (6.3)
IC50 ([4]; Homo sapiens, Raji, 48 h of treatment, read-out: IC50 ± SD, cell viability, RAJI): 0.4 µM
Selectivity index (IC50 PBMCs/IC50 cell line), KG-1 ([5]; 48 h): (26.2)
Selectivity index (IC50 PHA_PBMCs/IC50 cell line), KG-1 ([5]; 48 h): (13.5)
Selectivity index (IC50 RPMI1788/IC50 cell line), KG-1 ([5]; 48 h): (7.2)
IC50 ([5]; Homo sapiens, KG-1, 48 h of treatment, read-out: IC50 ± SD, cell viability, KG-1): 0.3 µM
Selectivity index (IC50 PBMCs/IC50 cell line), MDA-MB-231 ([6]; 48 h): (9.7)
Selectivity index (IC50 PHA_PBMCs/IC50 cell line), MDA-MB-231 ([6]; 48 h): (5.0)
Selectivity index (IC50 RPMI1788/IC50 cell line), MDA-MB-231 ([6]; 48 h): (2.6)
IC50 ([6]; Homo sapiens, MDA-MB-231, 48 h of treatment, read-out: IC50 ± SD, cell viability, MDA-MB-231): 0.9 ± 0.7 µM
Selectivity index (IC50 PBMCs/IC50 cell line), PC-3 ([7]; 48 h): (9.8)
Selectivity index (IC50 PHA_PBMCs/IC50 cell line), PC-3 ([7]; 48 h): (5.1)
Selectivity index (IC50 RPMI1788/IC50 cell line), PC-3 ([7]; 48 h): (2.7)
IC50 ([7]; Homo sapiens, PC-3, 48 h of treatment, read-out: IC50 ± SD, cell viability, PC-3): 0.9 ± 0.4 µM
Selectivity index (IC50 PBMCs/IC50 cell line), U-937 ([8]; 48 h): (24.0)
Selectivity index (IC50 PHA_PBMCs/IC50 cell line), U-937 ([8]; 48 h): (12.4)
Selectivity index (IC50 RPMI1788/IC50 cell line), U-937 ([8]; 48 h): (6.6)
IC50 ([8]; Homo sapiens, U-937, 48 h of treatment, read-out: IC50 ± SD, cell viability, U-937): 0.4 µM
DNMT3A protein expression level (western blot), HCT116 [9]: DNMT3A protein downregulation was observed
